Measured values taken from US8465808B2, “Process for depositing an organic acid on the surface of a metal composition” (Duquesne University of the Holy Spirit, priority 2005, dated 2013).

Assays:
[1] = Static contact angle goniometry with water on modified SS316L; format: physicochemical; settings: SAM of the acid on SS316L; for Contact angle values: static, average of at least 3 samples, 6 readings each
Description: Static contact angles were measured using VCA Optima Goniometry to determine the wettability of the surface. Measurements were made using the procedure described by Bain et al. (J. Am. Chem. Soc. 1989; Vol. 111, pgs. 321-335), known by those skilled in the art. About 1 μl drop of deionized water (purified with a Millipore Milli Q plus system) was formed at the end of the micro-liter syringe and brought into contact with the surface. Average contact angle value±standard deviation of 6 readings each on at least 3 samples have been reported.

[2] = tested on: 3T3 Swiss Albino embryo fibroblast cells; experiment: Live/dead viability of cells on modified SS316L substrates; format: cell-based; settings: 3T3 fibroblasts, 10,000 cells/well, 24 hours on SAM-modified SS316L
Description: For cell experiments, 3T3 Swiss Albino embryo fibroblast cells of mouse were obtained from ATCC (CCL-92). The cells were grown in Dulbecco's modified Eagle medium (DMEM, Invitrogen Corp.) supplemented with 10% calf serum, 1% penicillin/[…] antibiotic. The cells were passaged every 3 days and were discarded after 15 passages. Cells were removed from the T 75 flasks by trypsinization, washed once with DMEM, suspended in culture medium. The modified SS316L substrates were placed in a 24 well plate and were sterilized with 70% ethanol for 10 mins and then rinsed with sterile distilled water 3 times. The sterilized substrates were left in the hood to dry. The suspended 3T3 Swiss Albino embryo fibroblast cells were then counted with a Haemocytometer after staining them with trypan blue and seeded at the density of 10,000 cells/well into each of the wells containing the substrates modified with respective acids After incubating the cells in humidified air with 5% CO2 for 24 hours at 37° C., the samples were rinsed with PBS three times and analyzed for live dead cells. […] This calcein is retained in the live cells and produces a green fluorescence. Ethidium homodimer is excluded by the intact plasma membrane of live cells but enters cells with damaged membranes (dead cells), binds to nucleic acid and produces a bright red fluorescence. […]

[3] = tested on: 3T3 Swiss Albino embryo fibroblast cells; experiment: Cell adhesion (number of cells attached) on modified SS316L substrates; format: cell-based, mouse; settings: 3T3 cells, 24 hours, fluorescence microscopy
Description: For cell experiments, 3T3 Swiss Albino embryo fibroblast cells of mouse were obtained from ATCC (CCL-92). The cells were grown in Dulbecco's modified Eagle medium (DMEM, Invitrogen Corp.) supplemented with 10% calf serum, 1% penicillin/[…] antibiotic. The cells were passaged every 3 days and were discarded after 15 passages. Cells were removed from the T 75 flasks by trypsinization, washed once with DMEM, suspended in culture medium. The modified SS316L substrates were placed in a 24 well plate and were sterilized with 70% ethanol for 10 mins and then rinsed with sterile distilled water 3 times. The sterilized substrates were left in the hood to dry. The suspended 3T3 Swiss Albino embryo fibroblast cells were then counted with a Haemocytometer after staining them with trypan blue and seeded at the density of 10,000 cells/well into each of the wells containing the substrates modified with respective acids After incubating the cells in humidified air with 5% CO2 for 24 hours at 37° C., the samples were rinsed with PBS three times and analyzed for live dead cells. Viability/cytotoxicity kit (L-3224) obtained from Molecular Probes was used to provide a simultaneous determination of live and dead cells. The assay contains Calcein AM and ethidium homodimer dyes. The live cells are identified by the enzymatic conversion of the non-fluorescent cell permeant calcein AM to intensely fluorescent calcein. This calcein is retained in the live cells and produces a green fluorescence. Ethidium homodimer is excluded by the intact plasma membrane of live cells but enters cells with damaged membranes (dead cells), binds to nucleic acid and produces a bright red fluorescence. Live cells are in green and dead cells in red when viewed under fluorescent microscope.
After washing with PBS, 0.5 ml of the live/dead stain was added to each well and the well plate was covered with aluminum foil and placed in the incubator for about 30 minutes. Three samples of each type of modification were used for every set and four such sets were performed. Each sample was mounted on the microscope slide and viewed under fluorescence Nikon Eclipse microscope at 10× magnification. Five different spots were observed and counted for cells on each sample and average value used for calculation of significance. Viability calculations were performed on each sample by counting the number of live cells in the total number of cells.
ANOVA was used to determine the statistical difference between the means of data sets for cell experiments with the modified substrates and multiple comparisons of the sample means was performed using Bonferroni post test using confidence level of 0.05.
In order to determine the stability of the interfacial systems developed in this work under physiological conditions and their viability for use in biomedical devices (and more specifically medically implantable devices), cell adhesion studies using fibroblasts were conducted on four sets of independent experiments with three samples each of all functionalized SAM with carboxylate and phosphonate head groups. The substrates were modified with —CH3, —COOH, —OH terminated phosphonic acids and —CH3, —OH, —COOH and —NH2 terminated carboxylic acids by the solution deposition process of the present invention as set forth herein. […] The samples were then rinsed with PBS three times and analyzed for live dead cells using the Viability/cytotoxicity kit. […]

[4] = cited from earlier work

Row | Contact angle values [1] [°] | Molecule | Contact angle compared with control SS316L substrate [1] | pKa [4] | also measured
1 |  | 12-aminododecanecarboxylic acid [C12NH2—C] | lower contact angle values than the control |  | 
2 | 52.3 | O=C(O)CCCCCCCCCCCCP(=O)(O)O [C12COOH—P, 12-carboxydodecanephosphonic acid] |  |  | 
3 | 38.4 | NCCCCCCCCCCCCC(=O)O [C12NH2—C, 12-aminododecanecarboxylic acid] |  |  | Number of cells attached to the modified SS316L (in words) [3]: close to that in the control
4 | 42 | O=C(O)CCCCCCCCCCCCC(=O)O [C14COOH—C, 1,12-dodecanedicarboxylic acid] | lower contact angle values than the control |  | 
5 |  | CCCCCCCCCCCCCCCCCC(=O)O [Heptadecyl Carboxylic acid] |  | pKa = 10 | 
6 | 104.1 | CCCCCCCCCCCCCCCCCCC(=O)O [ODCA, octadecylcarboxylic acid] |  | pKa = 10 | Contact angle values ([1]; listed as Octadecylcarboxylic acid): 104 °; Shape of the cells on the surface [3]: rounded and small
7 |  | CCCCCCCCCCCCCCCCCCS(=O)(=O)O [Octadecyl sulfonic acid] |  | pKa = 2 | 

Row | Molecule | Contact angle values [1] [°] | Contact angle compared with control SS316L substrate [1] | pKa [4] | also measured
8 | O=P(O)(O)CCCCCCCCCCCO [C11OH—P, 11-hydroxyundecanephosphonic acid] | 59.8 |  |  | Viability (live cells / total number of cells) [2]: about 92%
9 | O=C(O)CCCCCCCCCCCCCCCO [C16OH—C, 16-hydroxyhexadecanoic acid] | 48.6 | lower contact angle values than the control |  | 
10 | CCCCCCCCCCCCCCCCCCP(=O)(O)O [ODPA, octadecylphosphonic acid] | 108 |  | pka = 4 | Viability (live cells / total number of cells) [2]: about 92%; Number of cells attached to the modified SS316L (in words) [3]: fewer cell attachments than ODCA; Shape of the cells on the surface [3]: rounded and small; Number of cells attached to the modified SS316L (in words) ([3]; listed as methyl terminated phosphonic acid): the least in number
